# Values joined by “and” are separate entries in the source; they are usually repeats but may differ in a detail not shown here. Equal values may be shown once. “Also recorded” adds a separate entry of the source. Read-outs that look alike come from different tables or passages of the source.
# Assays:
# SARS2 = format: cell-based, SARS-CoV-2; details: for Percentage Infection Relative to Appropriate DMSO Control with Avg Background Subtraction: Nunc Celigo plates; for Infection Data, Average, Mean: average of Exp 1-2 (SMW491, SMW492)
# cells (nuclei count) = details: for Toxicity Data, Average, Mean percentage relative to DMSO control: Average of Exp 1 (SMW491) and Exp 2 (SMW492)
smiles,measurement,setting,value
COc1ccc(CNCCc2ccccc2F)c(OCC(O)CN2CCN(C)CC2)c1 (racemic) [SILCS41],SARS2 antiviral activity,SARS2,better activity than the original compound; also recorded: improved properties over UMB18g
same,Percentage Infection Relative to Appropriate DMSO Control with Avg Background Subtraction,"SARS2; Exp 1 (SMW491), 1 uM",92.14% and 78.53%
same,Percentage Infection Relative to Appropriate DMSO Control with Avg Background Subtraction,"SARS2; Exp 1 (SMW491), 5 uM",20.40% and 20.73%
same,Percentage Infection Relative to Appropriate DMSO Control with Avg Background Subtraction,"SARS2; Exp 1 (SMW491), 10 uM",2.55% and 1.51%
same,Percentage Infection Relative to Appropriate DMSO Control with Avg Background Subtraction,"SARS2; Exp 1 (SMW491), 25 uM",2.26% and 4.77%
same,Percentage Infection Relative to Appropriate DMSO Control with Avg Background Subtraction,"SARS2; Exp 1 (SMW491), 50 uM",5.27% and 3.84%
same,Percentage Infection Relative to Appropriate DMSO Control with Avg Background Subtraction,"SARS2; Exp 2 (SMW492), 1 uM",11.86% and 10.73%
same,Percentage Infection Relative to Appropriate DMSO Control with Avg Background Subtraction,"SARS2; Exp 2 (SMW492), 5 uM",15.34% and 12.91%
same,Percentage Infection Relative to Appropriate DMSO Control with Avg Background Subtraction,"SARS2; Exp 2 (SMW492), 10 uM",1.08% and 2.35%
same,Percentage Infection Relative to Appropriate DMSO Control with Avg Background Subtraction,"SARS2; Exp 2 (SMW492), 25 uM",1.58% and 3.10%
same,Percentage Infection Relative to Appropriate DMSO Control with Avg Background Subtraction,"SARS2; Exp 2 (SMW492), 50 uM",8.27% and 6.25%
same,Percentage Inhibition Average 1 μM,"SARS2; SARS2, 1 μM",51.68%
same,Screening data (Relative infection to DMSO controls) Average 1 μM,"SARS2; SARS2, 1 μM, 100=DMSO control",48.32
same,Percentage Inhibition Average 5 μM,"SARS2; SARS2, 5 μM",82.65%
same,Screening data (Relative infection to DMSO controls) Average 5 μM,"SARS2; SARS2, 5 μM, 100=DMSO control",17.35
same,Percentage Inhibition Average 10 μM,"SARS2; SARS2, 10 μM",98.13%
same,Screening data (Relative infection to DMSO controls) Average 10 μM,"SARS2; SARS2, 10 μM, 100=DMSO control",1.87
same,Percentage Inhibition Average 25 μM,"SARS2; SARS2, 25 μM",97.07%
same,Screening data (Relative infection to DMSO controls) Average 25 μM,"SARS2; SARS2, 25 μM, 100=DMSO control",2.93
same,Percentage Inhibition Average 50 μM,"SARS2; SARS2, 50 μM",94.09%
same,Screening data (Relative infection to DMSO controls) Average 50 μM,"SARS2; SARS2, 50 μM, 100=DMSO control",5.91
same,Average (relative infection to DMSO over the 5 tested concentrations),"SARS2; SARS2, average over 1 to 50 uM, 100=DMSO control",15.28
same,"Infection Data, Average, Mean","SARS2; n 4, 1 uM",48.32%
same,"Infection Data, Average, Mean","SARS2; n 4, 5 uM",17.35%
same,"Infection Data, Average, Mean","SARS2; n 4, 10 uM",1.87%
same,"Infection Data, Average, Mean","SARS2; n 4, 25 uM",2.93%
same,"Infection Data, Average, Mean","SARS2; n 4, 50 uM",5.91%
same,"Relative cell count to DMSO controls, Average 1 μM","cells (nuclei count); 1 μM, toxicity data, 100=DMSO control",118.33
same,"Relative cell count to DMSO controls, Average 5 μM","cells (nuclei count); 5 μM, toxicity data, 100=DMSO control",139.55
same,"Relative cell count to DMSO controls, Average 10 μM","cells (nuclei count); 10 μM, toxicity data, 100=DMSO control",124.03
same,"Relative cell count to DMSO controls, Average 25 μM","cells (nuclei count); 25 μM, toxicity data, 100=DMSO control",118.34
same,"Relative cell count to DMSO controls, Average 50 μM","cells (nuclei count); 50 μM, toxicity data, 100=DMSO control",101.49
same,"Toxicity Data, Average, Mean percentage relative to DMSO control","cells (nuclei count); n=4, 1 uM",118.33%
same,"Toxicity Data, Average, Mean percentage relative to DMSO control","cells (nuclei count); n=4, 5 uM",139.55%
same,"Toxicity Data, Average, Mean percentage relative to DMSO control","cells (nuclei count); n=4, 10 uM",124.03%
same,"Toxicity Data, Average, Mean percentage relative to DMSO control","cells (nuclei count); n=4, 25 uM",118.34%
same,"Toxicity Data, Average, Mean percentage relative to DMSO control","cells (nuclei count); n=4, 50 uM",101.49%
same,"Relative cell count to DMSO controls, Average (for correlation analysis)",cells (nuclei count); average value over the 5 tested concentrations (1 to 50 uM),120.35

# Reference: US20240132484A1, “BROAD SPECTRUM ANTIVIRAL COMPOUNDS TARGETING THE SKI COMPLEX” (priority 2020, published 2024)
